# From PubChem BioAssay AID330 (DTP/NCI, 2004)
# Where “and” joins values, the source holds several entries; their conditions need not be identical. Identical values can stand only once. Toxic doses and inconclusive results are not listed.
# Tested on: P388 leukemia ip, CD2F1 mice, survival T/C
# Assay: NCI In Vivo Anticancer Drug Screen. Data for tumor model P388 Leukemia (intraperitoneal) in CD2F1 (CDF1) mice
# Conditions: endpoint: median survival time, higher = longer survival
# Procedure, shortened: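 Mice carrying the transplanted tumor received test compound or vehicle. Survival was recorded in each group, and the value is the treated-group measurement divided by that of the vehicle-treated control group.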
# [1] = dose: 50.0 mg/kg/injection, schedule: Q01DX005 (ip), vehicle: Klucel (hydroxypropylcellulose) (HPC)
# [2] = dose: 100.0 mg/kg/injection, schedule: Q01DX005 (ip), vehicle: Klucel (hydroxypropylcellulose) (HPC)
# [3] = dose: 200.0 mg/kg/injection, schedule: Q01DX005 (ip), vehicle: Klucel (hydroxypropylcellulose) (HPC)
# [4] = dose: 12.5 mg/kg/injection, schedule: Q01DX009 (ip), vehicle: Klucel (hydroxypropylcellulose) (HPC)
# [5] = dose: 25.0 mg/kg/injection, schedule: Q01DX009 (ip), vehicle: Klucel (hydroxypropylcellulose) (HPC)
# [6] = dose: 50.0 mg/kg/injection, schedule: Q01DX009 (ip), vehicle: Klucel (hydroxypropylcellulose) (HPC)
# [7] = dose: 25.0 mg/kg/injection, schedule: Q01DX009 (ip), vehicle: saline with Tween-80
# [8] = dose: 50.0 mg/kg/injection, schedule: Q01DX009 (ip), vehicle: saline with Tween-80
# [9] = dose: 12.5 mg/kg/injection, schedule: Q01DX009 (ip), vehicle: saline with Tween-80
# [10] = dose: 100.0 mg/kg/injection, schedule: Q01DX009 (ip), vehicle: Klucel (hydroxypropylcellulose) (HPC)
# [11] = dose: 50.0 mg/kg/injection, schedule: Q01DX005 (ip), vehicle: saline with Tween-80
# [12] = dose: 100.0 mg/kg/injection, schedule: Q01DX005 (ip), vehicle: saline with Tween-80
# [13] = dose: 200.0 mg/kg/injection, schedule: Q01DX005 (ip), vehicle: saline with Tween-80
smiles,measurement,setting,value
CC(C)[C@]12O[C@H]1[C@@H]1O[C@]13[C@]1(O[C@H]1C[C@H]1C4=C(CC[C@@]13C)C(=O)OC4)[C@@H]2O,T/C,"dose: 62.5 micrograms/kg/injection, schedule: Q01DX009 (ip), vehicle: saline with Tween-80",95 % of control
same,T/C,"dose: 125.0 micrograms/kg/injection, schedule: Q01DX009 (ip), vehicle: saline with Tween-80",95 % of control
same,T/C,"dose: 250.0 micrograms/kg/injection, schedule: Q01DX009 (ip), vehicle: saline with Tween-80",112 % of control
COC(=O)C12OCC34C(CC5C(C)=C(O)C(=O)CC5(C)C3C(O)C1O)OC(=O)C(OC(=O)C=C(C)C)C24 (stereo unspecified) (tested in a mixture with another compound),T/C,"dose: 0.03 mg/kg/injection, schedule: Q01DX009 (ip), vehicle: saline + alcohol",106 % of control
same,T/C,"dose: 0.06 mg/kg/injection, schedule: Q01DX009 (ip), vehicle: saline + alcohol",113 % of control
same,T/C,"dose: 0.13 mg/kg/injection, schedule: Q01DX009 (ip), vehicle: saline + alcohol",107 % of control
same,T/C,"dose: 0.25 mg/kg/injection, schedule: Q01DX009 (ip), vehicle: saline + alcohol",98 % of control
same,T/C,"dose: 0.5 mg/kg/injection, schedule: Q01DX009 (ip), vehicle: saline + alcohol",94 % of control
same,T/C,"dose: 1.0 mg/kg/injection, schedule: Q01DX009 (ip), vehicle: saline + alcohol",106 % of control
same,T/C,"dose: 2.0 mg/kg/injection, schedule: Q01DX009 (ip), vehicle: saline + alcohol",94 % of control
CCCCC1(CCN(CC)c2ccccc2)C(=O)NC(=O)NC1=O,T/C,[1],101 % of control
same,T/C,[2],99 % of control
same,T/C,[3],99 % of control
C[N+]1(Cc2csc(-c3ccc(Cl)cc3)n2)CCOCC1,T/C,[4],100 % of control and 106 % of control
same,T/C,[5],113 % of control and 96 % of control
same,T/C,[6],98 % of control and 108 % of control
CC(=O)Nc1ccc(S(=O)(=O)/C(=C/c2ccc(-c3ccc(Br)cc3)o2)c2ccc([N+](=O)[O-])o2)cc1,T/C,"dose: 50.0 mg/kg/injection, schedule: Q01DX009 (ip), vehicle: suspension in saline",86 % of control
same,T/C,"dose: 100.0 mg/kg/injection, schedule: Q01DX009 (ip), vehicle: suspension in saline",104 % of control
CC(C)=CCc1c2ccoc2c(O)c2oc(=O)ccc12,T/C,[7],106 % of control
same,T/C,[8],105 % of control
same,T/C,"dose: 100.0 mg/kg/injection, schedule: Q01DX009 (ip), vehicle: saline with Tween-80",105 % of control
N#CC(=C1N=c2ccccc2=N1)c1[nH]c(O)c2ccccc12,T/C,"dose: 6.25 mg/kg/injection, schedule: Q01DX009 (ip), vehicle: saline with Tween-80",93 % of control
same,T/C,[9],91 % of control
same,T/C,[7],94 % of control
Cc1ccc2[nH]c(=S)n(CCc3ccccc3)c(=O)c2c1,T/C,[6],99 % of control
same,T/C,[10],97 % of control
same,T/C,"dose: 200.0 mg/kg/injection, schedule: Q01DX009 (ip), vehicle: Klucel (hydroxypropylcellulose) (HPC)",97 % of control
CCC(C)N(CCCOC(=O)c1ccc(N)cc1)C(C)CC (stereo unspecified),T/C,[9],109 % of control
same,T/C,"dose: 12.5 mg/kg/injection, schedule: Q04DX003 (ip), vehicle: saline",100 % of control
same,T/C,[7],100 % of control
same,T/C,"dose: 25.0 mg/kg/injection, schedule: Q04DX003 (ip), vehicle: saline",91 % of control
same,T/C,[8],104 % of control
same,T/C,"dose: 50.0 mg/kg/injection, schedule: Q04DX003 (ip), vehicle: saline",91 % of control
CC(NC(=O)C(N)Cc1ccc(Cl)cc1)P(=O)(O)O (stereo unspecified),T/C,"dose: 12.5 mg/kg/injection, schedule: Q04DX002 (ip), vehicle: saline with Tween-80",100 % of control
same,T/C,"dose: 25.0 mg/kg/injection, schedule: Q04DX002 (ip), vehicle: saline with Tween-80",94 % of control
same,T/C,"dose: 50.0 mg/kg/injection, schedule: Q04DX002 (ip), vehicle: saline with Tween-80",103 % of control
CC(O)CNCCNc1ccc(NCCNCC(C)O)c2c1C(=O)c1c(O)ccc(O)c1C2=O (stereo unspecified),T/C,"dose: 0.5 mg/kg/injection, schedule: Q01DX009 (ip), vehicle: acid diluted with saline",165 % of control
same,T/C,"dose: 1.0 mg/kg/injection, schedule: Q01DX009 (ip), vehicle: acid diluted with saline",150 % of control
same,T/C,"dose: 2.0 mg/kg/injection, schedule: Q01DX009 (ip), vehicle: acid diluted with saline",200 % of control
same,T/C,"dose: 4.0 mg/kg/injection, schedule: Q01DX009 (ip), vehicle: acid diluted with saline",234 % of control
same,T/C,"dose: 8.0 mg/kg/injection, schedule: Q01DX009 (ip), vehicle: acid diluted with saline",202 % of control
Nc1ncc2nc3c4ccccc4c(=O)cc-3oc2n1,T/C,[11],96 % of control
same,T/C,[12],96 % of control
same,T/C,[13],91 % of control
OC(ON=C1CCCCC1)c1ccc2c(c1)OCO2 (stereo unspecified),T/C,[11],96 % of control
same,T/C,[12],103 % of control
same,T/C,[13],107 % of control
C1CCCc2c(-c3n[nH]c4c3CCCCCC4)n[nH]c2CC1,T/C,"dose: 60.0 mg/kg/injection, schedule: Q01DX005 (ip), vehicle: saline with Tween-80",100 % of control
same,T/C,"dose: 120.0 mg/kg/injection, schedule: Q01DX005 (ip), vehicle: saline with Tween-80",95 % of control
same,T/C,"dose: 240.0 mg/kg/injection, schedule: Q01DX005 (ip), vehicle: saline with Tween-80",100 % of control
Cc1c(C)c(N(CCCl)CCCl)c(C)c2c1OC(C)(CCCC(C)CCCC(C)CCCC(C)C)CC2 (stereo unspecified),T/C,"dose: 100.0 mg/kg/injection, schedule: Q04DX002 (ip), vehicle: saline with Tween-80",113 % of control
same,T/C,"dose: 200.0 mg/kg/injection, schedule: Q04DX002 (ip), vehicle: saline with Tween-80",113 % of control
same,T/C,"dose: 400.0 mg/kg/injection, schedule: Q04DX002 (ip), vehicle: saline with Tween-80",115 % of control
Cc1c2c(cc3c1[nH]c1ccccc13)C(c1ccc(Cl)cc1)=NCC2,T/C,[4],99 % of control
same,T/C,[5],101 % of control
same,T/C,[6],96 % of control
same,T/C,[10],96 % of control
C/C(=N\NC(=S)NNC(=S)N(C)c1ccccc1)c1ccccc1,T/C,"dose: 25.0 mg/kg/injection, schedule: Q01DX005 (ip), vehicle: Klucel (hydroxypropylcellulose) (HPC)",98 % of control
same,T/C,[1],93 % of control
same,T/C,[2],94 % of control
same,T/C,[3],91 % of control
COc1cc2c(c(OC)c1O)-c1ccc(OC)c(=O)cc1[C@@H](NC(=O)C(F)(F)F)CC2,T/C,"dose: 2.5 mg/kg/injection, schedule: Q01DX009 (ip), vehicle: Klucel (hydroxypropylcellulose) (HPC)",157 % of control
same,T/C,"dose: 5.0 mg/kg/injection, schedule: Q01DX005 (ip), vehicle: Klucel (hydroxypropylcellulose) (HPC)",155 % of control
same,T/C,"dose: 5.0 mg/kg/injection, schedule: Q01DX009 (ip), vehicle: Klucel (hydroxypropylcellulose) (HPC)",159 % of control and 163 % of control
same,T/C,"dose: 10.0 mg/kg/injection, schedule: Q01DX005 (ip), vehicle: Klucel (hydroxypropylcellulose) (HPC)",155 % of control
same,T/C,"dose: 10.0 mg/kg/injection, schedule: Q01DX009 (ip), vehicle: Klucel (hydroxypropylcellulose) (HPC)",182 % of control
COc1ccc(-c2cc(-c3ccc(OC)cc3)nc(-c3ccc(OC)cc3)c2)cc1,T/C,[1],98 % of control
same,T/C,[2],94 % of control
same,T/C,[3],89 % of control
CC(C)CS(=O)(=O)OCCCCOS(=O)(=O)CC(C)C,T/C,[1],115 % of control
same,T/C,[2],111 % of control
